Residue numbers refer to the chain shown, from its start.
B1: cr994 (nucleic acid)
guide: GTTTAAGAGCTAAGCTGGAAACAGCATAGCAAGTTTAAATAAGGCTAGTCCGTTATCAACTTGAAAAAGTGGCACCGATTCGGTGCT
modifications: listed as DNA, chemistry not fully specified
B2: cr267 (nucleic acid)
guide: B1 guide with G18C, T79G
modifications: listed as DNA, chemistry not fully specified
B3: cr835 (nucleic acid)
guide: B1 guide with T79G, T84C
modifications: listed as DNA, chemistry not fully specified
B4: cr181 (nucleic acid)
guide: B1 guide with C45T, G48A, C60T, G69A, A74G, T79G, T84C
modifications: listed as DNA, chemistry not fully specified
B5: cr397 (nucleic acid)
guide: B1 guide with C60A, G69T, T79G
modifications: listed as DNA, chemistry not fully specified
B6: cr416 (nucleic acid)
guide: B1 guide with A74G, G77A, T79G, C81T, T84C
modifications: listed as DNA, chemistry not fully specified
B7: cr748 (nucleic acid)
guide: B1 guide with T62C, A65G, A67G, T79G
modifications: listed as DNA, chemistry not fully specified
B8: cr306 (nucleic acid)
guide: B1 guide with A47T, A78T, T79G
modifications: listed as DNA, chemistry not fully specified
B9: cr646 (nucleic acid)
guide: B1 guide with C60A, G69T, A74T, T79G, T84A
modifications: listed as DNA, chemistry not fully specified
B10: cr944 (nucleic acid)
guide: B1 guide with T62C, A67G, C73T, G77A, T79G, C81T, G85A
modifications: listed as DNA, chemistry not fully specified
B11: cr102 (nucleic acid)
guide: B1 guide with C60T, G69A, C73A, T79G, G85T
modifications: listed as DNA, chemistry not fully specified
B12: cr831 (nucleic acid)
guide: B1 guide with C60T, G69A, T79G
modifications: listed as DNA, chemistry not fully specified
B13: cr131 (nucleic acid)
guide: B1 guide with A65G, C76A, T79G, G82T
modifications: chemistry not given here
B14: cr264 (nucleic acid)
guide: B1 guide with A68T, T79G
modifications: listed as DNA, chemistry not fully specified
B15: cr205 (nucleic acid)
guide: B1 guide with C60T, G69A, C73G, T79G, G85C
modifications: listed as DNA, chemistry not fully specified
B16: cr372 (nucleic acid)
guide: B1 guide with T46G, T79G
modifications: listed as DNA, chemistry not fully specified
B17: cr167 (nucleic acid)
guide: B1 guide with T61C, T79G
modifications: listed as DNA, chemistry not fully specified
B18: cr707 (nucleic acid)
guide: B1 guide with A78T, T79G
modifications: listed as DNA, chemistry not fully specified
B19: cr938 (nucleic acid)
guide: B1 guide with A47G, T79G
modifications: listed as DNA, chemistry not fully specified

Experiments:
K562 CRISPRi cells [1] = assay: Perturb-seq pooled growth measurement (sgRNA counts, growth phenotype γ, relative activity); format: cell-based, human; conditions: sequencing read counts; for Perturb-seq pooled growth sgRNA counts, d5: 5 days of growth (day seven after transduction); for Perturb-seq pooled growth sgRNA counts, d10: 10 days of growth (day twelve after transduction); for Perturb-seq pooled growth sgRNA counts, T0: T0 = day two after transduction
Text: Finally, we sought to use intermediate-activity sgRNAs to explore relationships between expression levels of various genes and the resulting cellular phenotypes. To simultaneously measure gene expression levels and obtain rich phenotypes for a variety of sgRNA series, we used Perturb-seq, an experimental strategy that enables matched capture of the transcriptome and the identity of an expressed sgRNA for each individual cell in pools of cells (27, 31-33) (FIG. 12A). […] In addition to the single-cell transcriptomes, we measured bulk growth phenotypes conferred by sgRNAs in these cells.
To measure the growth rate defects conferred by each sgRNA for comparison with the transcriptional phenotypes, samples of 500,000 transduced cells were taken from the same transduced cell population used in the Perturb-seq experiment on days two, seven, and twelve after transduction. Genomic DNA was extracted using the Nucleospin Blood kit (Macherey-Nagel) and sgRNA amplicons were prepared as described previously and above (19), albeit with no genomic DNA digestion or gel purification, and sequenced on HiSeq 4000 as described above for the other screens. Growth phenotypes were calculated by comparing normalized sgRNA abundances at day seven and twelve to those at day two, as described above. […] Relative sgRNA activities measured at day seven (five days of growth) were used to assign sgRNA activities in further analysis.

K562 CRISPRi cells [2] = assay: Constant region variant library pooled growth screen, K562; format: cell-based, human; conditions: sgRNA constant region variants
Procedure, shortened: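 Growth screens in K562 CRISPRi cells were harvested 4-8 days post-selection at >2000× library coverage. Each variant's phenotype was referenced to the unmodified constant region with the same targeting sequence.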

[3] = activity relative to the un-modified constant region cr995
[4] = activity relative to the original, un-modified constant region cr995

| Molecule | Perturb-seq pooled growth sgRNA counts, d5 (K562 CRISPRi cells [1]) | Perturb-seq pooled growth sgRNA counts, d10 (K562 CRISPRi cells [1]) | Perturb-seq pooled growth sgRNA counts, T0 (K562 CRISPRi cells [1]) | Mean relative activity (K562 CRISPRi cells [2]; [3]) | further results |
| --- | --- | --- | --- | --- | --- |
| ALDOA_+_30077139.23-P1P2_00: sgRNA targeting ALDOA, GGTCACCAGGACCCCTTCTG, SEQ ID NO: 156 (listed as DNA, chemistry not fully specified) | 4056 | 2781 | 5280 | – | – |
| ALDOA_+_30077139.23-P1P2_06: sgRNA targeting ALDOA, GGTCACCAGGATCCCTTCTG, SEQ ID NO: 157 (listed as DNA, chemistry not fully specified) | 4831 | 3500 | 6015 | – | – |
| ALDOA_+_30077139.23-P1P2_07: sgRNA targeting ALDOA, GGTCACCAGGCCCCCTTCTG, SEQ ID NO: 158 (listed as DNA, chemistry not fully specified) | 4284 | 3028 | 4830 | – | – |
| ALDOA_+_30077139.23-P1P2_13: sgRNA targeting ALDOA, GGTCACCAGGACCCCTTTTG, SEQ ID NO: 160 (listed as DNA, chemistry not fully specified) | 16944 | 26890 | 6699 | – | – |
| ALDOA_+_30077139.23-P1P2_14: sgRNA targeting ALDOA, GGTCACCAGGACCGCTTCTG, SEQ ID NO: 159 (listed as DNA, chemistry not fully specified) | 5347 | 6076 | 3603 | – | – |
| ATP5E_−_57607036.23-P1P2_00: sgRNA targeting ATP5E, GGTGTCCAGGGGCACTCTGT, SEQ ID NO: 151 (listed as DNA, chemistry not fully specified) | 12109 | 9475 | 8197 | – | – |
| ATP5E_−_57607036.23-P1P2_01: sgRNA targeting ATP5E, GGTGTCCTGGGGCACTCTGT, SEQ ID NO: 152 (listed as DNA, chemistry not fully specified) | 10487 | 8806 | 7774 | – | – |
| ATP5E_−_57607036.23-P1P2_04: sgRNA targeting ATP5E, GGTGTCCAGGAGCACTCTGT, SEQ ID NO: 154 (listed as DNA, chemistry not fully specified) | 13256 | 14860 | 7209 | – | – |
| ATP5E_−_57607036.23-P1P2_14: sgRNA targeting ATP5E, GGTGTCCAGGGGCACTGTGT, SEQ ID NO: 155 (listed as DNA, chemistry not fully specified) | 10750 | 15257 | 4611 | – | – |
| ATP5E_−_57607036.23-P1P2_16: sgRNA targeting ATP5E, GGTGTCCAGGGGCGCTCTGT, SEQ ID NO: 153 (listed as DNA, chemistry not fully specified) | 9571 | 9964 | 6210 | – | – |
| BCR_+_23523092.23-P1P2_00: sgRNA targeting BCR, GCGCGCGGGGCCCGTCTCAG, SEQ ID NO: 125 (listed as DNA, chemistry not fully specified) | 2250 | 2333 | 9644 | – | – |
| B1 | – | – | – | 0.9671 | – |
| B2 | – | – | – | 0.9552 | – |
| B3 | – | – | – | 0.9515 | – |
| B4 | – | – | – | 0.9506 | – |
| B5 | – | – | – | 0.9508 | – |
| B6 | – | – | – | 0.9574 | – |
| B7 | – | – | – | – | Mean relative activity (K562 CRISPRi cells [2]; [4]): 1.146 |
| B8 | – | – | – | 0.9647 | – |
| B9 | – | – | – | 0.962 | – |
| B10 | – | – | – | – | Mean relative activity (K562 CRISPRi cells [2]; [4]): 1.065 |
| B11 | – | – | – | 0.9651 | – |
| B12 | – | – | – | 0.962 | – |
| B13 | – | – | – | 0.96 | – |
| B14 | – | – | – | 0.9513 | – |
| B15 | – | – | – | 0.9515 | – |
| B16 | – | – | – | 0.9545 | – |
| B17 | – | – | – | 0.9545 | – |
| B18 | – | – | – | 0.9632 | – |
| B19 | – | – | – | 0.9596 | – |

— patent publication US20220259593A1, “CONTROL OF MAMMALIAN GENE DOSAGE USING CRISPR” (The Regents of the University of California, priority 2019, published 2022)
